Activity calls are given as the source filed them. How the calls were made is not given here.
Test system: rodent lifetime carcinogenesis bioassay, tumor incidence TD50
Experiment: carcinogenic potency in animals, long-term in vivo studies, CPDB compilation (AID 1745844)

O=C1C=C(N2CC2)C(=O)C(N2CC2)=C1N1CC1
TD50 (rat, strain BR 46, males, i.v., site: any site (literature study), lesion: benign tumor, dosed 52 weeks, study length 104 weeks): 0.032 mg/kg/day | TD50 (rat, strain BR 46, males, i.v., site: any site (literature study), lesion: malignant tumor, dosed 52 weeks, study length 104 weeks): 0.00677 mg/kg/day | TD50 (rat, strain BR 46, males, i.v., site: any site (literature study), lesion: several types, types named in the paper, dosed 52 weeks, study length 104 weeks): 0.00504 mg/kg/day | TD50 (rat, strain BR 46, males, i.v., site: liver, lesion: liver-cell carcinoma, dosed 52 weeks, study length 104 weeks): 0.0653 mg/kg/day

FC(F)OC(F)(F)C(F)Cl (centres undefined)
carcinogen call (mouse, strain Swiss/ICR, females, inhaled, site: liver, lesion: one or several types, types not named, dosed 52 weeks, study length 52 weeks): negative (inactive) | carcinogen call (mouse, strain Swiss/ICR, females, inhaled, site: liver, lesion: several types, types named in the paper, dosed 78 weeks, study length 82 weeks): negative (inactive) | TD50 (mouse, strain Swiss/ICR, females, inhaled, site: lung, lesion: adenoma, dosed 52 weeks, study length 52 weeks): 8930 mg/kg/day (inactive) | TD50 (mouse, strain Swiss/ICR, females, inhaled, site: lung, lesion: adenoma, dosed 78 weeks, study length 82 weeks): 18900 mg/kg/day (inactive) | TD50 (mouse, strain Swiss/ICR, males, inhaled, site: liver, lesion: several types, types named in the paper, dosed 52 weeks, study length 52 weeks): 8120 mg/kg/day (inactive) | TD50 (mouse, strain Swiss/ICR, males, inhaled, site: liver, lesion: several types, types named in the paper, dosed 78 weeks, study length 82 weeks): 11700 mg/kg/day (inactive) | carcinogen call (mouse, strain Swiss/ICR, males, inhaled, site: lung, lesion: adenoma, dosed 52 weeks, study length 52 weeks): negative (inactive) | TD50 (mouse, strain Swiss/ICR, males, inhaled, site: lung, lesion: adenoma, dosed 78 weeks, study length 82 weeks): 60900 mg/kg/day (inactive)

Nc1ccc(O)c([N+](=O)[O-])c1
carcinogen call (mouse, strain B6C3F1, females, in feed, site: any site (literature study), lesion: several types, types named in the paper, dosed 103 weeks, study length 105 weeks): negative (inactive) | TD50 (mouse, strain B6C3F1, females, in feed, site: liver, lesion: hepatocellular adenoma + hepatocellular carcinoma + neoplastic nodule, dosed 103 weeks, study length 105 weeks): 3650 mg/kg/day | carcinogen call (mouse, strain B6C3F1, males, in feed, site: any site (literature study), lesion: several types, types named in the paper, dosed 103 weeks, study length 105 weeks): negative (inactive) | TD50 (mouse, strain B6C3F1, males, in feed, site: liver, lesion: hepatocellular adenoma + hepatocellular carcinoma + neoplastic nodule, dosed 103 weeks, study length 105 weeks): 2250 mg/kg/day | TD50 (rat, strain Fischer 344, females, in feed, site: urinary bladder, lesion: transitional-cell carcinoma, dosed 103 weeks, study length 105 weeks): 1880 mg/kg/day | TD50 (rat, strain Fischer 344, males, in feed, site: any site (literature study), lesion: several types, types named in the paper, dosed 103 weeks, study length 105 weeks): 270 mg/kg/day | TD50 (rat, strain Fischer 344, males, in feed, site: urinary bladder, lesion: transitional-cell carcinoma, dosed 103 weeks, study length 105 weeks): 309 mg/kg/day

CCC[N+](=O)[O-]
carcinogen call (rat, strain Long-Evans BLU:(LE), females, inhaled, site: liver, lesion: hepatocellular carcinoma, dosed 52 weeks, study length 52 weeks): negative (inactive) | carcinogen call (rat, strain Long-Evans BLU:(LE), females, inhaled, site: liver, lesion: hepatocellular carcinoma, dosed 52 weeks, study length 93 weeks): negative (inactive) | carcinogen call (rat, strain Long-Evans BLU:(LE), females, inhaled, site: liver, lesion: hepatocellular carcinoma, dosed 78 weeks, study length 78 weeks): negative (inactive) | carcinogen call (rat, strain Long-Evans BLU:(LE), females, inhaled, site: liver, lesion: hepatocellular carcinoma, dosed 93 weeks, study length 93 weeks): negative (inactive) | carcinogen call (rat, strain Long-Evans BLU:(LE), males, inhaled, site: liver, lesion: hepatocellular carcinoma, dosed 52 weeks, study length 52 weeks): negative (inactive) | carcinogen call (rat, strain Long-Evans BLU:(LE), males, inhaled, site: liver, lesion: hepatocellular carcinoma, dosed 52 weeks, study length 93 weeks): negative (inactive) | carcinogen call (rat, strain Long-Evans BLU:(LE), males, inhaled, site: liver, lesion: hepatocellular carcinoma, dosed 78 weeks, study length 78 weeks): negative (inactive) | carcinogen call (rat, strain Long-Evans BLU:(LE), males, inhaled, site: liver, lesion: hepatocellular carcinoma, dosed 93 weeks, study length 93 weeks): negative (inactive) | TD50 (rat, strain Sprague-Dawley, males, by gavage, site: liver, lesion: hepatocellular adenoma, dosed 26 weeks, study length 77 weeks): 0.872 mg/kg/day (inactive)

[Na+]
TD50 (mouse, strain B6C3F1, females, in drinking water, site: liver, lesion: hyperplastic nodule, dosed 104 weeks, study length 104 weeks): 1.33e+06 mg/kg/day | TD50 (mouse, strain B6C3F1, females, in drinking water, site: lung, lesion: papillary tumor, dosed 104 weeks, study length 104 weeks): 4980 mg/kg/day | TD50 (mouse, strain B6C3F1, males, in drinking water, site: any site (literature study), lesion: several types, types named in the paper, dosed 104 weeks, study length 104 weeks): 992 mg/kg/day | TD50 (mouse, strain B6C3F1, males, in drinking water, site: liver, lesion: hemangioma, dosed 104 weeks, study length 104 weeks): 9550 mg/kg/day | TD50 (mouse, strain B6C3F1, males, in drinking water, site: liver, lesion: hyperplastic nodule, dosed 104 weeks, study length 104 weeks): 5970 mg/kg/day | TD50 (mouse, strain B6C3F1, males, in drinking water, site: lung, lesion: papillary tumor, dosed 104 weeks, study length 104 weeks): 3740 mg/kg/day | TD50 (rat, strain ACI, males, in feed, site: forestomach, lesion: papilloma, dosed 52 weeks, study length 52 weeks): 2660 mg/kg/day | carcinogen call (rat, strain F344/DuCrj, males, in feed, site: forestomach, lesion: one or several types, types not named, dosed 51 weeks, study length 52 weeks): negative (inactive) | carcinogen call (rat, strain F344/DuCrj, males, in feed, site: stomach, glandular, lesion: one or several types, types not named, dosed 51 weeks, study length 52 weeks): negative (inactive) | TD50 (rat, strain Fischer 344, males, in feed, site: adrenal medulla, lesion: pheochromocytoma, dosed 104 weeks, study length 104 weeks): 2980 mg/kg/day (inactive) | carcinogen call (rat, strain Wistar, males, in feed, site: stomach, glandular, lesion: one or several types, types not named, dosed 82 weeks, study length 82 weeks): negative (inactive)

From PubChem BioAssay AID1745844 (Carcinogenic Potency Database (CPDB), 2022)
